{"source": "ChEMBL document CHEMBL5053510", "about": "“Discovery of AS-1763: A Potent, Selective, Noncovalent, and Orally Available Inhibitor of Bruton's Tyrosine Kinase” (J Med Chem, 2021)", "system": "OCI-Ly10", "assay": "Antiproliferative activity against human OCILY10 cells harboring BTK C481S mutant […] gene assessed as reduction in cell viability after 96 hrs", "type": "functional, cell-based", "conditions": "OCI-Ly10, 96 h", "data": [{"smiles": "C=CC(=O)N1CCC[C@@H](n2nc(-c3ccc(Oc4ccccc4)cc3)c3c(N)ncnc32)C1", "note": "[IBRUTINIB]", "values": [{"measurement": "IC50", "value": 1030, "unit": "nM"}]}]}
